Entries after “also recorded” stand apart in the source; their conditions may differ.
B1: sgRNA#2: FKBP12-specific guide RNA targeting SEQ ID NO: 1; full sequence SEQ ID NO: 17 (nucleic acid)
guide: GGGCGCACCUUCCCCAAGCGGUUUUAGAGCUAGAAAUAGCAAGUUAAAAUAAGGCUAGUCCGUUAUCAACUUGAAAAAGUGGCACCGAGUCGGUGC
modifications: synthetic chemically modified sgRNA, pattern not given here

Tests used:
[1] = system: K562 cells; assay: NK92 cytotoxicity in co-culture with K562; assay type: cell-based, human; conditions: 1:1 with K562, n = 1
Procedure: FIG. 19: Killing efficiency pf FKBP12^KO NK cells NK92 were electroporated with Cas9 protein and sgRNA#1(Table 1). After 5 days they were incubated with K562 cells at a ratio of 1:1. Killing capacity was calculated by the reduction in frequency of K562 cells. n = 1.
We performed a proof-of-principle experiment to confirm feasibility of FKBP12^KO in the NK cell line NK92. Four days prior to the experiment, FKBP12^KO NK92 cells were electroporated with Cas9 + FKBP12 sgRNA#1 (Table 1). NK cell cytotoxicity was assessed by co-culture with the MHC class I deficient erythroleukemia cell line K562. To this end, NK92 and CFSE-labeled K562 cells were mixed at a 1:1 ratio. After a total of 8 hours, the reaction was stopped by washing with cold 1X PBS. The cells were stained with Life Dead UV before fixation and permeabilization (IC Fix/Perm Kit, Thermo Fisher). Fixation was performed for 30 minutes at RT. The stained cells were analyzed with a Cytoflex LX. Analysis was performed with FlowJo v10.

[2] = system: target cells loaded with SARS-CoV-2 peptides
[3] = system: CMV-specific T-cell products; assay: CMV-specific stimulation at day 21, intracellular cytokines by flow cytometry; assay type: cell-based, human
Procedure: FIG. 2: Functional profiles of CMV-specific T-cell products with disrupted FKBP12 CMV-specific stimulation of T-cell products at day 21 of culture using antigen-presenting cells (autologous lymphoblastic B-cell lines) pulsed with overlapping peptide pools of CMVIE-1 and CMVpp65 (6 h stimulation). Cytokines were captured in T-cells by addition of Brefeldin A after 1 h of stimulation and cells were stained using a fixation/permeabilization kit and fluorescently 1a-belled antibodies. Data were acquired by multicolor flow cytometry. Immunosuppressants were added where indicated at the following clinically relevant doses: Tac = 6 ng/ml Tacrolimus; CsA ═ 120 ng/ml Cyclosporine A; Tac/Pred/MPA = 6 ng/ml Tacrolimus + 0.57 µg/ml Prednisolone + 2.7 µg/ml Mycophenolic acid. Stars symbolize p-values < 0.05, which were determined by tests for normal distribution (Shapiro-Wilk and Kolmogorov-Smirnov tests), followed by one-way ANOVA (normally distributed data sets) or Friedman test (not normally distributed data sets) and paired t-tests (normally distributed data sets) or Wilcoxon matched pairs signed rank tests (not normally distributed data sets) as posttests. […]

[4] = system: Regulatory T cells; assay: Treg expansion in medium with or without calcineurin inhibitors; assay type: cell-based, human; conditions: Tac 6 ng/ml
Procedure: Edited and control Treg cells were subsequently expanded in medium with or without different calcineurin inhibitors and subsequently analysed for cell expansion (A) and with flow cytometry (B+C). […] CTLA4 is known to suppress T cells and modulate pro-inflammatory responses by dendritic cells. […] Light bars are untouched expanded Treg, dark bars are FKBP12^k.o.expanded Treg. Tac was used at 6 ng/ml, CsA was used at 125 ng/ml, which corresponds to pharmacological doses that may, e.g., found in patient serum.
FKBP12^KO and control Treg cells were subsequently expanded in medium with or without different calcineurin inhibitors and subsequently analysed for cell expansion (FIG. 11 A) and with flow cytometry (FIG. 11 B+C). […] CTLA4 is known to suppress T cells and modulate pro-inflammatory responses by dendritic cells.

| Molecule | killing efficiency in non-edited NK92 cells [1] | T-cell-mediated cytotoxic killing of target cells [2] | proportion of IFNγ-producers ([3]; effect of Tacrolimus on T-cells of CMV-TCPs) | proliferation of untouched Tregs [4] | cytokine producers / T-cell function in the presence of Tacrolimus ([3]; 6 ng/ml Tacrolimus, TCPs edited with the named sgRNA) |
| --- | --- | --- | --- | --- | --- |
| C=CC[C@@H]1/C=C(\C)C[C@H](C)C[C@H](OC)[C@H]2O[C@@](O)(C(=O)C(=O)N3CCCC[C@H]3C(=O)O[C@H](/C(C)=C/[C@@H]3CC[C@@H](O)[C@H](OC)C3)[C@H](C)[C@@H](O)CC1=O)[C@H](C)C[C@@H]2OC [Tacrolimus] | decreased killing efficiency | not affected | significantly reduced | reduced the proliferation |  |
| B1 |  |  |  |  | superior function in maintaining T-cell function; also recorded: retained physiological levels of cytokine producers |
